Source: patent US6790843B1, “C-19-halogen-substituted steroids of the androst-9(11)-ene-series, methods for the production and use thereof” (Schering AG, priority 1999, dated 2004)

Tests used:
human androgen receptor = molecular target: T1, human androgen receptor (Homo sapiens, UniProt P10275); assay: binding affinity to the androgen receptor (reference standard 3H-methyltrienolone R 1881)
T1 sequence (P10275 1-920): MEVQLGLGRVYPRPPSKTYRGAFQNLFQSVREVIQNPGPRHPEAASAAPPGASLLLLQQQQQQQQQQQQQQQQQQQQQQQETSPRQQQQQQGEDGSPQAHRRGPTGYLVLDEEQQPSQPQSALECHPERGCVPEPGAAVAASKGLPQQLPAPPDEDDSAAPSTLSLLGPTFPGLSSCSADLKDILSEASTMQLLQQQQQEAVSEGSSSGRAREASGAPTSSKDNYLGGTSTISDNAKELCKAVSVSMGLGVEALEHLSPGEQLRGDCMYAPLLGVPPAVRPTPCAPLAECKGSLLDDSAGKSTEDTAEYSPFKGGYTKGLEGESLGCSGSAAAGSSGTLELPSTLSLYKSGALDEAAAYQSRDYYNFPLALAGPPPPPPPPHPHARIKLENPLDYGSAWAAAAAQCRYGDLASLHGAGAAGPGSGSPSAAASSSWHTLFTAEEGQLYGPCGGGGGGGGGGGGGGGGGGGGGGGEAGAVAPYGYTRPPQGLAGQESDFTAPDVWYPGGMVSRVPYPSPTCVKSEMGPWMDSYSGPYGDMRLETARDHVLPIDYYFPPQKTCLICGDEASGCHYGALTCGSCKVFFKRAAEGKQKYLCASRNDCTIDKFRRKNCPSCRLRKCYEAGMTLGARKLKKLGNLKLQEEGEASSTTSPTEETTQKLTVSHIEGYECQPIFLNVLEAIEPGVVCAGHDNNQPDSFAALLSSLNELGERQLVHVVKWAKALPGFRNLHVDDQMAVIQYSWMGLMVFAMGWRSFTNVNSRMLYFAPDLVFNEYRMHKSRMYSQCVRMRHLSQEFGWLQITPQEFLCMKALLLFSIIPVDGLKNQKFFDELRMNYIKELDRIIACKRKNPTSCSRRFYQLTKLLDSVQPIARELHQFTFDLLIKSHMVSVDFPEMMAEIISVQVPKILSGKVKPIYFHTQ

Structure (SMILES)	melting point	affinity to the androgen receptor (in words) (human androgen receptor)	IC50 (human androgen receptor)
CCCCCCCSCC[C@]12CC[C@@H]3C(=CC[C@]4(C)[C@@H](O)CC[C@@H]34)[C@@]1(C)CC[C@H](O)C2	126 °C	–	–
CCn1ccnc1SCC[C@]12CC[C@@H]3C(=CC[C@]4(C)[C@@H](O)CC[C@@H]34)[C@@]1(C)CC[C@H](O)C2	212 °C	–	–
C[C@]12CC=C3[C@@H](CCC4=CC(=O)CC[C@@]43CBr)[C@@H]1CC[C@@H]2O [Example 2, 19-Bromo-17β-hydroxy-androsta-4,9(11)-dien-3-one]	149 °C (dec.)	high affinity	–
C[C@]12CC=C3[C@@H](CCC4=CC(=O)CC[C@@]43CI)[C@@H]1CC[C@@H]2O [iodide 6, 17β-Hydroxy-19-iodo-androsta-4,9(11)-dien-3-one]	–	high affinity	57 nM
